The values below come from patent US20120004281A1, “RNA Interference Mediated Inhibition of the Nerve Growth Factor Beta Chain (NGFB) Gene Expression Using Short Interfering Nucleic Acid (siNA)” (Merck Sharp & Dohme Corp, priority 2009, published 2012).

[invAb] = inverted abasic unit; m = 2'-O-methyl; r = 2'-OH (RNA); f = 2'-fluoro

For the data set, the system named is NGFβ mRNA. Nature of the data set: NGFβ mRNA knock-down in Calu-1 cells (RNAiMax transfection, Taqman RT-PCR). It counts as cell-based, human. To be noted: human Calu-1 cells, 10 nM siNA, 24 hrs post-transfection, relative to non-targeting control, normalized to GAPDH. As for the experimental part: Calu-1 (human; ATCC cat# HTB-54): Cells were cultured at 37° C. in the presence of 5% CO2 and grown in McCoy's 5a medium supplemented with fetal bovine serum at a final concentration of 10% and 100 μg/mL of streptomycin and 100 U/mL penicillin.
All transfections were performed using RNAiMax (Invitrogen Cat# 13778-150) as per the manufacturer's instructions.
Cells were plated in all wells of a tissue-culture treated, 96-well plate at a final count of 5,000 cells/well in […], of appropriate culture media. Cells were cultured for 24 hours after plating at 37° C. in the presence of 5% CO2.
After 24 hours, complexes containing siNA and RNAiMax were created as follows: A solution of RNAiMax diluted 33-fold in OPTI-MEM was prepared. In parallel, solutions of the siNAs for testing were prepared to a final concentration of 120 nM in OPTI-MEM. After incubation of RNAiMax/OPTI-MEM solution at room temperature for 5 min, an equal volume of the siRNA solution and the RNAiMax solution were added together for each of the siNAs.
This solution was incubated at room temperature for 20 minutes. After incubation, 20 uL of the solution was added to each of the relevant wells.
The final concentration of siNA in each well was 10 nM and the final volume of RNAiMax in each well was 0.3u1.
The time of incubation with the RNAiMax-siNA complexes was 24 hours, unless otherwise indicated. There was no change in media between the transfection and harvesting of the cells unless otherwise indicated.
Dose response curves were carried out in a similar fashion in 96-well plates, while maintaining a constant amount of RNAiMax in each transfection.
RNA was extracted from a 96-well plate using the TaqMan® Gene Expression Cells-to-CT™ Kit (Cat# 4399002) with a modified protocol. Briefly, a 60 uL (1 plate) or 110 uL (2 plates) of the Lysis Solution with DNase I was dispensed into each well of the Lysis Buffer Plate (twin.tec full skirt plate). The lysis buffer and stop plates were stored at 4° C. until the cells were washed.
The plate was spun at 1100 rpm for 5 minutes. The culture medium was aspirated and discarded from the wells of the culture plate. The lysis was performed automatically using a BioMek FX instrument and method. After the Biomek method was completed, the lysis plate was incubated for 2 min. at room temperature. The lysis plate can be stored for 2 hours at 4° C., or at −20° C. or −80° C. for two months.
Each well of the reverse transcription plate required 10 uL of 2× reverse transcriptase Buffer, luL of 20× reverse transcription enzyme and 2 uL of nuclease-free water. The reverse transcription master mix was prepared by mixing 2× reverse transcription buffer, 20× reverse transcription enzyme mix, and nuclease-free water. 13 uL of the reverse transcription master mix was dispensed into each well of the reverse transcription plate (semi-skirted). A separate reverse transcription plate was prepared for each cell plate. The plate was loaded onto a Biomek NX or Biomek FX Dual-96 and the Biomek method was run. The program is programmed to automatically added 7 uL of lysate from the cell lysis procedure described above into each well of the reverse transcription plate. The plate is sealed and spun on a centrifuge (1000 rpm for 30 seconds) to settle the contents to the bottom of the reverse transcription plate. The plate is placed in a thermocycler at 37° C. for 60 min, 95° C. for 5 min, and 4° C. until the plate is removed from the thermocycler. Upon removal, if not used immediately, the plate was frozen at −20° C.
A series of probes and primers were used to detect the various mRNA transcripts of the genes of NGFβ, BDNF and GAPDH in human cell lines. All the Taqman probes and primers for the experiments here-in described were supplied as pre-validated sets by Applied Biosystems, Inc. (see Table 3). The assays were performed on an ABI 7900 instrument, according to the manufacturer's instructions. […]
Turning to “25405-DC: siNA duplex, NGFβ target site 124; sense B cAAGGGAGcAGcuuucuAu TTB (SEQ ID NO: 35), antisense AUAGAAAGcuGcucccuuGUU (SEQ ID NO: 36) (sense CAAGGGAGCAGCUUUCUAUTT; antisense AUAGAAAGCUGCUCCCUUGUU; sense: DNA at AGT, 2'-fluoro at CU, [invAb] at 5' end, 3' end, backbone not given here; antisense: sugars from the 5' end rrrmmmmmffmfffffffmmm, backbone not given here)”, the “% KD in CaLu-1 Cells” value was found to be 31%. “25408-DC: siNA duplex, NGFβ target site 653; sense B GAGGuGAAcAuuAAcAAcA TTB (SEQ ID NO: 41), antisense UGUuGuuAAuGuucAccucUU (SEQ ID NO: 42) (sense GAGGUGAACAUUAACAACATT; antisense UGUUGUUAAUGUUCACCUCUU; sense: DNA at AGT, 2'-fluoro at CU, [invAb] at 5' end, 3' end, backbone not given here; antisense: sugars from the 5' end rrrfmffmmfmfffmffffmm, backbone not given here)”: the “% KD in CaLu-1 Cells” value is 26%. Take “25409-DC: siNA duplex, NGFβ target site 468; sense B cucAGGAucuGGAcuucGA TTB (SEQ ID NO: 43), antisense UCGAAGuccAGAuccuGAGUU (SEQ ID NO: 44) (sense CUCAGGAUCUGGACUUCGATT; antisense UCGAAGUCCAGAUCCUGAGUU; sense: DNA at AGT, 2'-fluoro at CU, [invAb] at 5' end, 3' end, backbone not given here; antisense: sugars from the 5' end rrrmmmfffmmmffffmmmmm, backbone not given here)”: the “% KD in CaLu-1 Cells” value is 52%. Turning to “25428-DC: siNA duplex, NGFβ target site 677; sense B uucAAAcAGuAcuuuuuuG TTB (SEQ ID NO: 81), antisense CAAAAAAGuAcuGuuuGAAUU (SEQ ID NO: 82) (sense UUCAAACAGUACUUUUUUGTT; antisense CAAAAAAGUACUGUUUGAAUU; sense: DNA at AGT, 2'-fluoro at CU, [invAb] at 5' end, 3' end, backbone not given here; antisense: sugars from the 5' end rrrmmmmmfmffmfffmmmmm, backbone not given here)”, the “% KD in CaLu-1 Cells” value came to 57%. Take “25423-DC: siNA duplex, NGFβ target site 519; sense B AcAGGAGcAAGcGGucAuc TTB (SEQ ID NO: 71), antisense GAUGAccGcuuGcuccuGuUU (SEQ ID NO: 72) (sense ACAGGAGCAAGCGGUCAUCTT; antisense GAUGACCGCUUGCUCCUGUUU; sense: DNA at AGT, 2'-fluoro at CU, [invAb] at 5' end, 3' end, backbone not given here; antisense: sugars from the 5' end rrrmmffmfffmfffffmfmm, backbone not given here)”: the “% KD in CaLu-1 Cells” value amounted to 40%. The value for “25421-DC: siNA duplex, NGFβ target site 675; sense B uAuucAAAcAGuAcuuuuu TTB (SEQ ID NO: 67), antisense AAAAAGuAcUGuuuGAAuAUU (SEQ ID NO: 68) (sense UAUUCAAACAGUACUUUUUTT; antisense AAAAAGUACUGUUUGAAUAUU; sense: DNA at AGT, 2'-fluoro at CU, [invAb] at 5' end, 3' end, backbone not given here; antisense: sugars from the 5' end rrrmmmfmfmmfffmmmfmmm, backbone not given here)” was 56%. With “25419-DC: siNA duplex, NGFβ target site 648; sense B uGGGAGAGGuGAAcAuuAA TTB (SEQ ID NO: 63), antisense UUAAuGuucAccucucccAUU (SEQ ID NO: 64) (sense UGGGAGAGGUGAACAUUAATT; antisense UUAAUGUUCACCUCUCCCAUU; sense: DNA at AGT, 2'-fluoro at CU, [invAb] at 5' end, 3' end, backbone not given here; antisense: sugars from the 5' end rrrmfmfffmffffffffmmm, backbone not given here)”, the “% KD in CaLu-1 Cells” value came to 25%. For the substance “25426-DC: siNA duplex, NGFβ target site 676; sense B AuucAAAcAGuAcuuuuuu TTB (SEQ ID NO: 77), antisense AAAAAAGuAcuGuuuGAAuUU (SEQ ID NO: 78) (sense AUUCAAACAGUACUUUUUUTT; antisense AAAAAAGUACUGUUUGAAUUU; sense: DNA at AGT, 2'-fluoro at CU, [invAb] at 5' end, 3' end, backbone not given here; antisense: sugars from the 5' end rrrmmmmfmffmfffmmmfmm, backbone not given here)”, the “% KD in CaLu-1 Cells” value was found to be 38%. On to “25414-DC: siNA duplex, NGFβ target site 615; sense B ccAcAGAcAucAAGGGcAA TTB (SEQ ID NO: 53), antisense UUGcccuuGAuGucuGuGGUU (SEQ ID NO: 54) (sense CCACAGACAUCAAGGGCAATT; antisense UUGCCCUUGAUGUCUGUGGUU; sense: DNA at AGT, 2'-fluoro at CU, [invAb] at 5' end, 3' end, backbone not given here; antisense: sugars from the 5' end rrrfffffmmfmfffmfmmmm, backbone not given here)”, for which the “% KD in CaLu-1 Cells” value is on record as 61%. “25410-DC: siNA duplex, NGFβ target site 451; sense B ccGuGAAGcuGcAGAcAcu TTB (SEQ ID NO: 45), antisense AGUGucuGcAGcuucAcGGUU (SEQ ID NO: 46) (sense CCGUGAAGCUGCAGACACUTT; antisense AGUGUCUGCAGCUUCACGGUU; sense: DNA at AGT, 2'-fluoro at CU, [invAb] at 5' end, 3' end, backbone not given here; antisense: sugars from the 5' end rrrmfffmfmmffffmfmmmm, backbone not given here)”: the “% KD in CaLu-1 Cells” value is listed as 70%.
